Measured values reported in the NIST ThermoML archive (doi:10.1016/j.jct.2012.08.010).

Assay: xn = mol fraction of the nth substance listed
Conditions: 101 kPa, Liquid, Vibrating tube method

C=C[Si]1(C)O[Si](C)(C=C)O[Si](C)(C=C)O[Si](C)(C=C)O1 (stereo not given) [2,4,6,8-tetramethyl-2,4,6,8-tetravinylcycloterasiloxane] + CCc1ccccc1
mass density [kg/m3]
Conditions | 288.15 K | 298.15 K | 308.15 K | 318.15 K | 328.15 K
x1 = 0.0501 | 887.7 | 878.79 | 869.83 | 860.83 | 851.79
x1 = 0.1045 | 902.53 | 893.47 | 884.37 | 875.24 | 866.11
x1 = 0.1504 | 913.16 | 904 | 894.77 | 885.58 | 876.37
x1 = 0.2005 | 923.2 | 913.94 | 904.59 | 895.29 | 885.99
x1 = 0.2502 | 931.85 | 922.49 | 913.05 | 903.69 | 894.31
x1 = 0.3023 | 939.76 | 930.31 | 920.8 | 911.36 | 901.91
x1 = 0.3443 | 945.44 | 935.9 | 926.4 | 916.84 | 907.26
x1 = 0.3988 | 952.02 | 942.4 | 932.8 | 923.14 | 913.48
x1 = 0.4491 | 957.43 | 947.75 | 938.01 | 928.31 | 918.61
x1 = 0.499 | 962.24 | 952.49 | 942.68 | 932.88 | 923.08
x1 = 0.5497 | 966.67 | 956.86 | 946.99 | 937.14 | 927.3
x1 = 0.5979 | 970.47 | 960.6 | 950.7 | 940.8 | 930.9
x1 = 0.6498 | 974.27 | 964.35 | 954.39 | 944.46 | 934.51
x1 = 0.6946 | 977.23 | 967.27 | 957.29 | 947.3 | 937.32
x1 = 0.7486 | 980.54 | 970.52 | 960.48 | 950.44 | 940.38
x1 = 0.7994 | 983.4 | 973.34 | 963.28 | 953.21 | 943.13
x1 = 0.8489 | 985.97 | 975.86 | 965.78 | 955.67 | 945.56
x1 = 0.9467 | 990.55 | 980.33 | 970.21 | 960.03 | 949.84
x1 = 1 | 992.74 | 982.54 | 972.34 | 962.14 | 951.94

C=C[Si]1(C)O[Si](C)(C=C)O[Si](C)(C=C)O[Si](C)(C=C)O1 (stereo not given) [2,4,6,8-tetramethyl-2,4,6,8-tetravinylcycloterasiloxane] + Cc1ccccc1C
mass density [kg/m3]
Conditions | 288.15 K | 298.15 K | 308.15 K | 318.15 K | 328.15 K
x1 = 0.0501 | 899.27 | 890.61 | 882.01 | 873.28 | 864.53
x1 = 0.1045 | 912.95 | 904.03 | 895.21 | 886.26 | 877.4
x1 = 0.1503 | 922.61 | 913.54 | 904.57 | 895.48 | 886.45
x1 = 0.2004 | 931.72 | 922.5 | 913.37 | 904.14 | 894.98
x1 = 0.2501 | 939.54 | 930.19 | 920.94 | 911.57 | 902.32
x1 = 0.3022 | 946.69 | 937.18 | 927.81 | 918.32 | 909.02
x1 = 0.3443 | 951.7 | 942.14 | 932.7 | 923.13 | 913.69
x1 = 0.3987 | 957.55 | 947.88 | 938.35 | 928.69 | 919.16
x1 = 0.4487 | 962.3 | 952.55 | 942.93 | 933.19 | 923.59
x1 = 0.499 | 966.62 | 956.77 | 947.08 | 937.26 | 927.63
x1 = 0.549 | 970.42 | 960.52 | 950.76 | 940.89 | 931.18
x1 = 0.598 | 973.72 | 963.78 | 954.02 | 944.1 | 934.32
x1 = 0.6483 | 976.93 | 966.95 | 957.08 | 947.12 | 937.26
x1 = 0.6945 | 979.61 | 969.55 | 959.65 | 949.64 | 939.74
x1 = 0.7483 | 982.42 | 972.33 | 962.38 | 952.33 | 942.34
x1 = 0.7987 | 984.81 | 974.7 | 964.71 | 954.64 | 944.57
x1 = 0.8489 | 987.06 | 976.91 | 966.88 | 956.77 | 946.68
x1 = 0.9426 | 990.76 | 980.56 | 970.47 | 960.3 | 950.08
x1 = 1 | 992.74 | 982.54 | 972.34 | 962.14 | 951.94
